In the NIST ThermoML archive (doi:10.1016/j.jct.2019.04.009):
Numbers after ± are expanded uncertainties.

Test: mn = molality of the nth substance listed, in mol/kg
Details: Liquid, Vibrating tube method

For `NC(N)=O` [urea] + O, which mass density (298.15 K, 100 kPa, m1 = 0.1001) is on record?
The mass density was 998.63 ± 0.11 kg/m3.

What about the mass density (298.15 K, 100 kPa, m1 = 0.1999) of the same compound?
Its mass density is 1000.2 ± 0.11 kg/m3.

And the mass density (298.15 K, 100 kPa, m1 = 0.3)?
Its mass density is 1001.75 ± 0.11 kg/m3.

What about the mass density (298.15 K, 100 kPa, m1 = 0.4) of the same compound?
Its mass density is 1003.29 ± 0.11 kg/m3.

What about the mass density (298.15 K, 100 kPa, m1 = 0.5001) of the same compound?
The mass density was 1004.81 ± 0.11 kg/m3.

For `NC(N)=O` [urea] + OCCO, which mass density (288.15 K, 99.6 kPa, m1 = 0.0551) is on record?
The mass density was 1117.63 ± 0.12 kg/m3.

What about the mass density (288.15 K, 99.6 kPa, m1 = 0.1487) of the same compound?
Its mass density is 1118.67 ± 0.12 kg/m3.

And the mass density (288.15 K, 99.6 kPa, m1 = 0.3264)?
The mass density was 1120.61 ± 0.13 kg/m3.

What about the mass density (288.15 K, 99.6 kPa, m1 = 0.446) of the same compound?
The mass density was 1121.88 ± 0.13 kg/m3.

What about the mass density (288.15 K, 99.6 kPa, m1 = 0.495) of the same compound?
The mass density was 1122.39 ± 0.13 kg/m3.

What about the mass density (288.15 K, 99.6 kPa, m1 = 0.6616) of the same compound?
Its mass density is 1124.11 ± 0.13 kg/m3.

What about the mass density (288.15 K, 99.6 kPa, m1 = 0.8791) of the same compound?
Its mass density is 1126.28 ± 0.13 kg/m3.

What about the mass density (288.15 K, 99.6 kPa, m1 = 1.072) of the same compound?
The mass density was 1128.14 ± 0.13 kg/m3.

And the mass density (288.15 K, 99.6 kPa, m1 = 1.208)?
The mass density was 1129.41 ± 0.13 kg/m3.

And the mass density (288.15 K, 99.6 kPa, m1 = 1.357)?
The mass density was 1130.76 ± 0.13 kg/m3.

What about the mass density (288.15 K, 99.6 kPa, m1 = 1.523) of the same compound?
The mass density was 1132.23 ± 0.13 kg/m3.

What about the mass density (298.15 K, 99.6 kPa, m1 = 0.0551) of the same compound?
The mass density was 1110.69 ± 0.12 kg/m3.

What about the mass density (298.15 K, 99.6 kPa, m1 = 0.1487) of the same compound?
Its mass density is 1111.72 ± 0.12 kg/m3.

And the mass density (298.15 K, 99.6 kPa, m1 = 0.3264)?
The mass density was 1113.63 ± 0.12 kg/m3.

What about the mass density (298.15 K, 99.6 kPa, m1 = 0.446) of the same compound?
The mass density was 1114.89 ± 0.12 kg/m3.

And the mass density (298.15 K, 99.6 kPa, m1 = 0.495)?
The mass density was 1115.41 ± 0.12 kg/m3.

What about the mass density (298.15 K, 99.6 kPa, m1 = 0.6616) of the same compound?
Its mass density is 1117.13 ± 0.12 kg/m3.

And the mass density (298.15 K, 99.6 kPa, m1 = 0.8791)?
The mass density was 1119.33 ± 0.12 kg/m3.

What about the mass density (298.15 K, 99.6 kPa, m1 = 1.072) of the same compound?
The mass density was 1121.24 ± 0.13 kg/m3.

What about the mass density (298.15 K, 99.6 kPa, m1 = 1.208) of the same compound?
Its mass density is 1122.55 ± 0.13 kg/m3.

What about the mass density (298.15 K, 99.6 kPa, m1 = 1.357) of the same compound?
The mass density was 1123.96 ± 0.13 kg/m3.

And the mass density (298.15 K, 99.6 kPa, m1 = 1.523)?
The mass density was 1125.51 ± 0.13 kg/m3.

And the mass density (308.15 K, 99.6 kPa, m1 = 0.0551)?
The mass density was 1103.68 ± 0.12 kg/m3.

What about the mass density (308.15 K, 99.6 kPa, m1 = 0.1487) of the same compound?
Its mass density is 1104.7 ± 0.12 kg/m3.

What about the mass density (308.15 K, 99.6 kPa, m1 = 0.3264) of the same compound?
Its mass density is 1106.59 ± 0.12 kg/m3.

What about the mass density (308.15 K, 99.6 kPa, m1 = 0.446) of the same compound?
Its mass density is 1107.84 ± 0.12 kg/m3.

And the mass density (308.15 K, 99.6 kPa, m1 = 0.495)?
Its mass density is 1108.35 ± 0.12 kg/m3.

And the mass density (308.15 K, 99.6 kPa, m1 = 0.6616)?
Its mass density is 1110.06 ± 0.12 kg/m3.

What about the mass density (308.15 K, 99.6 kPa, m1 = 0.8791) of the same compound?
Its mass density is 1112.26 ± 0.12 kg/m3.

And the mass density (308.15 K, 99.6 kPa, m1 = 1.072)?
The mass density was 1114.15 ± 0.12 kg/m3.

And the mass density (308.15 K, 99.6 kPa, m1 = 1.208)?
The mass density was 1115.46 ± 0.12 kg/m3.

What about the mass density (308.15 K, 99.6 kPa, m1 = 1.357) of the same compound?
The mass density was 1116.88 ± 0.12 kg/m3.

What about the mass density (308.15 K, 99.6 kPa, m1 = 1.523) of the same compound?
Its mass density is 1118.42 ± 0.12 kg/m3.

And the mass density (318.15 K, 99.6 kPa, m1 = 0.0551)?
The mass density was 1096.6 ± 0.12 kg/m3.

And the mass density (318.15 K, 99.6 kPa, m1 = 0.1487)?
Its mass density is 1097.61 ± 0.12 kg/m3.

And the mass density (318.15 K, 99.6 kPa, m1 = 0.3264)?
Its mass density is 1099.51 ± 0.12 kg/m3.

And the mass density (318.15 K, 99.6 kPa, m1 = 0.446)?
The mass density was 1100.77 ± 0.12 kg/m3.

What about the mass density (318.15 K, 99.6 kPa, m1 = 0.495) of the same compound?
The mass density was 1101.28 ± 0.12 kg/m3.

And the mass density (318.15 K, 99.6 kPa, m1 = 0.6616)?
Its mass density is 1103 ± 0.12 kg/m3.

What about the mass density (318.15 K, 99.6 kPa, m1 = 0.8791) of the same compound?
Its mass density is 1105.19 ± 0.12 kg/m3.

What about the mass density (318.15 K, 99.6 kPa, m1 = 1.072) of the same compound?
Its mass density is 1107.09 ± 0.12 kg/m3.

And the mass density (318.15 K, 99.6 kPa, m1 = 1.208)?
The mass density was 1108.4 ± 0.12 kg/m3.

What about the mass density (318.15 K, 99.6 kPa, m1 = 1.357) of the same compound?
The mass density was 1109.83 ± 0.12 kg/m3.

What about the mass density (318.15 K, 99.6 kPa, m1 = 1.523) of the same compound?
Its mass density is 1111.4 ± 0.12 kg/m3.

What about the mass density (328.15 K, 99.6 kPa, m1 = 0.0551) of the same compound?
The mass density was 1089.43 ± 0.12 kg/m3.

And the mass density (328.15 K, 99.6 kPa, m1 = 0.1487)?
Its mass density is 1090.44 ± 0.12 kg/m3.

And the mass density (328.15 K, 99.6 kPa, m1 = 0.3264)?
The mass density was 1092.34 ± 0.12 kg/m3.

And the mass density (328.15 K, 99.6 kPa, m1 = 0.446)?
The mass density was 1093.59 ± 0.12 kg/m3.

And the mass density (328.15 K, 99.6 kPa, m1 = 0.495)?
Its mass density is 1094.1 ± 0.12 kg/m3.

What about the mass density (328.15 K, 99.6 kPa, m1 = 0.6616) of the same compound?
The mass density was 1095.82 ± 0.12 kg/m3.

And the mass density (328.15 K, 99.6 kPa, m1 = 0.8791)?
Its mass density is 1098.01 ± 0.12 kg/m3.

And the mass density (328.15 K, 99.6 kPa, m1 = 1.072)?
Its mass density is 1099.92 ± 0.12 kg/m3.

What about the mass density (328.15 K, 99.6 kPa, m1 = 1.208) of the same compound?
Its mass density is 1101.23 ± 0.12 kg/m3.

What about the mass density (328.15 K, 99.6 kPa, m1 = 1.357) of the same compound?
Its mass density is 1102.66 ± 0.12 kg/m3.

And the mass density (328.15 K, 99.6 kPa, m1 = 1.523)?
The mass density was 1104.22 ± 0.12 kg/m3.
